Measurements as given in patent US9271978B2 (Zenith Epigenetics Corp., priority 2012, dated 2016).

Columns and labels:
[1] = target: T1, Brd4 bromodomain 1 (BRD4(1)) (Homo sapiens, UniProt O60885); assay: Inhibition of tetra-acetylated histone H4 binding to Brd4 bromodomain 1 (TR-FRET); design: key: Active: Compounds with an IC50 value less than 30 μM were deemed to be active.; Not Active: Compounds with an IC50 value less than 30 μM were deemed to be active; conditions: tetra-acetylated histone H4 peptide, active = IC50 <30 μM
T1 construct: Illustrative results with the first bromodomain of Brd4; made in house; host or cells: E. coli BL21 (DE3)
Summary of the method: (§1)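 N-terminally His-tagged bromodomains (200 nM), expressed in E. coli, were incubated with biotinylated tetra-acetylated histone H4 peptide (25-50 nM), Eu-cryptate streptavidin and XL665 anti-His antibody in HEPES pH 7.4 buffer with KF, 0.2% DMSO, 2 h at room temperature. Inhibition read as decreased 665/620 nm TR-FRET; IC50 from dose-response curves.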

[2] = target: T2, second bromodomain of Brd2 (BRD2(2)) (Homo sapiens, UniProt P25440); assay: Inhibition of tetra-acetylated histone H4 binding to Brd2 bromodomain 2 (TR-FRET); design: key: Active: Compounds with an IC50 value less than 30 μM were deemed to be active.; Not Active: Compounds with an IC50 value less than 30 μM were deemed to be active; conditions: tetra-acetylated histone H4 peptide, active = IC50 <30 μM
T2 construct: made in house; host or cells: E. coli BL21 (DE3)
T2 sequence (P25440 344-453 limits assumed): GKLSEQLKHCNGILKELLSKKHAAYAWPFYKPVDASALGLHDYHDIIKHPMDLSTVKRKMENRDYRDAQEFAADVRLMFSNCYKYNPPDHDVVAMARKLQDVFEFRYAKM
Summary of the method: as §1

c-myc = assay: Inhibition of c-myc expression in MV4-11 cells (mRNA, real-time PCR); type: cell-based; design: key: Active: Compounds with an IC50 value less than 30 μM were deemed to be active.; Not Active: Compounds with an IC50 value less than 30 μM were deemed to be active; conditions: Human AML MV4-11 cells, 3 h incubation
Summary of the method: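 MV4-11 cells (2.5×10^4) treated with compound or 0.1% DMSO for 3 h at 37 °C. c-myc mRNA measured by RT real-time PCR duplexed with cyclophilin. IC50 from dose–response curve.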

[3] = system: human AML MV-4-11 (CRL-9591) cells; assay: Inhibition of cell proliferation in MV4-11 cells; type: cell-based; design: key: Active: Compounds with an IC50 value less than 30 μM were deemed to be active.; Not Active: Compounds with an IC50 value less than 30 μM were deemed to be active; conditions: human AML MV-4-11 cells, 72 h; active = IC50 <30 μM
Summary of the method: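 Exponentially growing MV-4-11 cells (5×10^4/well) were treated immediately with two-fold dilutions of compound from 30 μM to 0.2 μM, in triplicate, for 72 h at 37° C, 5% CO2. Viability was measured by MTS absorbance at 490 nm after 3–4 h. Proliferation relative to DMSO after blank correction gave IC50.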

hIL-6 mRNA = assay: Inhibition of hIL-6 mRNA transcription in U937 cells; type: cell-based, human; design: key: Active: Compounds with an IC50 value less than 30 μM were deemed to be active.; Not Active: Compounds with an IC50 value less than 30 μM were deemed to be active; conditions: LPS stimulation, active = IC50 <30 μM
Summary of the method: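 U937 cells differentiated 3 days with 60 ng/mL PMA, pretreated 1 h with compound, then stimulated with 1 ug/mL E. coli LPS for 3 h at 37° C. hIL-6 mRNA quantified by one-step qRT-PCR, Ct normalized to internal control, expressed as fold induction relative to control.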

ApoA-I mRNA = assay: Up-regulation of hApoA-1 mRNA transcription in Huh7 cells; type: cell-based, human; design: key: Active: Compounds with an EC170 value less than 30 μM were deemed to be active; conditions: 48 h treatment, ApoA-I mRNA by real-time PCR, Active = EC170 less than 30 μM
Summary of the method: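 Huh7 cells treated with compound for 48 h. ApoA-I mRNA was then quantified in captured mRNA by one-step real-time RT-PCR. Fold induction calculated from Ct values relative to the matching DMSO control; EC170 is the concentration for 170% of control expression.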

Cc1noc(C)c1-c1ccc(=O)n(Cc2ccc(OC(F)(F)F)cc2)c1 [Example 5, 5-(3,5-Dimethylisoxazol-4-yl)-1-(4-(trifluoromethoxy)benzyl)pyridin-2(1H)-one]
Active: FRET activity (IC50 <30 μM) BRD4(1) [1] | FRET activity (IC50 <30 μM) BRD2(2) [2] | c-myc activity (IC50 <30 μM) (c-myc) | Cell Proliferation activity (IC50 <30 μM) [3] | IL-6 activity (IC50 <30 μM) (hIL-6 mRNA) | ApoA-1 activity (EC170 <30 μM) (ApoA-I mRNA)

Cc1noc(C)c1-c1cc(O)c(=O)n(Cc2ccccc2)c1 [Example 209, 1-benzyl-5-(3,5-dimethylisoxazol-4-yl)-3-hydroxypyridin-2(1H)-one]
Active: FRET activity (IC50 <30 μM) BRD4(1) [1] | c-myc activity (IC50 <30 μM) (c-myc) | Cell Proliferation activity (IC50 <30 μM) [3] | IL-6 activity (IC50 <30 μM) (hIL-6 mRNA) | ApoA-1 activity (EC170 <30 μM) (ApoA-I mRNA)

COc1cc(-c2c(C)noc2C)cn(Cc2ccccc2)c1=O [Example 210, 1-benzyl-5-(3,5-dimethylisoxazol-4-yl)-3-methoxypyridin-2(1H)-one]
Active: FRET activity (IC50 <30 μM) BRD4(1) [1] | c-myc activity (IC50 <30 μM) (c-myc) | Cell Proliferation activity (IC50 <30 μM) [3] | IL-6 activity (IC50 <30 μM) (hIL-6 mRNA) | ApoA-1 activity (EC170 <30 μM) (ApoA-I mRNA)

Cc1noc(C)c1-c1cc(N)c(=O)n(Cc2ccc(F)c(F)c2)c1 [Example 211, 3-amino-1-(3,4-difluorobenzyl)-5-(3,5-dimethylisoxazol-4-yl)pyridin-2(1H)-one]
Active: FRET activity (IC50 <30 μM) BRD4(1) [1] | c-myc activity (IC50 <30 μM) (c-myc) | Cell Proliferation activity (IC50 <30 μM) [3] | IL-6 activity (IC50 <30 μM) (hIL-6 mRNA) | ApoA-1 activity (EC170 <30 μM) (ApoA-I mRNA)

Cc1noc(C)c1-c1cc(N)c(=O)n(Cc2ccc(F)c(Cl)c2)c1 [Example 212, 3-amino-1-(3-chloro-4-fluorobenzyl)-5-(3,5-dimethylisoxazol-4-yl)pyridin-2(1H)-one]
Active: FRET activity (IC50 <30 μM) BRD4(1) [1] | c-myc activity (IC50 <30 μM) (c-myc) | Cell Proliferation activity (IC50 <30 μM) [3] | IL-6 activity (IC50 <30 μM) (hIL-6 mRNA) | ApoA-1 activity (EC170 <30 μM) (ApoA-I mRNA)

Cc1noc(C)c1-c1cc(N)c(=O)n(Cc2ccc(Cl)c(Cl)c2)c1 [Example 213, 3-amino-1-(3,4-dichlorobenzyl)-5-(3,5-dimethylisoxazol-4-yl)pyridin-2(1H)-one]
Active: FRET activity (IC50 <30 μM) BRD4(1) [1] | c-myc activity (IC50 <30 μM) (c-myc) | Cell Proliferation activity (IC50 <30 μM) [3] | IL-6 activity (IC50 <30 μM) (hIL-6 mRNA) | ApoA-1 activity (EC170 <30 μM) (ApoA-I mRNA)

Cc1noc(C)c1-c1cc(N)c(=O)n(Cc2nccs2)c1 [Example 215, 3-amino-5-(3,5-dimethylisoxazol-4-yl)-1-(thiazol-2-ylmethyl)pyridin-2(1H)-one]
Active: FRET activity (IC50 <30 μM) BRD4(1) [1] | c-myc activity (IC50 <30 μM) (c-myc) | Cell Proliferation activity (IC50 <30 μM) [3] | IL-6 activity (IC50 <30 μM) (hIL-6 mRNA) | ApoA-1 activity (EC170 <30 μM) (ApoA-I mRNA)

Cc1noc(C)c1-c1cc(N)c(=O)n(Cc2ccc(C#N)cc2)c1 [Example 216, 4-((3-amino-5-(3,5-dimethylisoxazol-4-yl)-2-oxopyridin-1(2H)-yl)methyl)benzonitrile]
Active: FRET activity (IC50 <30 μM) BRD4(1) [1] | c-myc activity (IC50 <30 μM) (c-myc) | Cell Proliferation activity (IC50 <30 μM) [3] | IL-6 activity (IC50 <30 μM) (hIL-6 mRNA) | ApoA-1 activity (EC170 <30 μM) (ApoA-I mRNA)

COc1ccc(Cn2cc(-c3c(C)noc3C)cc(N)c2=O)cc1 [Example 220, 3-amino-5-(3,5-dimethylisoxazol-4-yl)-1-(4-methoxybenzyl)pyridin-2(1H)-one]
Active: FRET activity (IC50 <30 μM) BRD4(1) [1] | c-myc activity (IC50 <30 μM) (c-myc) | Cell Proliferation activity (IC50 <30 μM) [3] | IL-6 activity (IC50 <30 μM) (hIL-6 mRNA) | ApoA-1 activity (EC170 <30 μM) (ApoA-I mRNA)

Cc1noc(C)c1-c1cc(N)c(=O)n(Cc2ccc(Cl)s2)c1 [Example 222, 3-amino-1-((5-chlorothiophen-2-yl)methyl)-5-(3,5-dimethylisoxazol-4-yl)pyridin-2(1H)-one]
Active: FRET activity (IC50 <30 μM) BRD4(1) [1] | c-myc activity (IC50 <30 μM) (c-myc) | Cell Proliferation activity (IC50 <30 μM) [3] | IL-6 activity (IC50 <30 μM) (hIL-6 mRNA) | ApoA-1 activity (EC170 <30 μM) (ApoA-I mRNA)

Cc1noc(C)c1-c1cc(Nc2cncc(F)c2)c(=O)n(Cc2ccccc2)c1 [Example 223, 1-benzyl-5-(3,5-dimethylisoxazol-4-yl)-3-((5-fluoropyridin-3-yl)amino)pyridin-2(1H)-one]
Active: FRET activity (IC50 <30 μM) BRD4(1) [1] | c-myc activity (IC50 <30 μM) (c-myc) | Cell Proliferation activity (IC50 <30 μM) [3] | IL-6 activity (IC50 <30 μM) (hIL-6 mRNA) | ApoA-1 activity (EC170 <30 μM) (ApoA-I mRNA)

Cc1noc(C)c1-c1cc(N)c(=O)n(Cc2ccc(OC(F)(F)F)cc2)c1 [Example 226, 3-amino-5-(3,5-dimethylisoxazol-4-yl)-1-(4-(trifluoromethoxy)benzyl)pyridin-2(1H)-one]
Active: FRET activity (IC50 <30 μM) BRD4(1) [1] | c-myc activity (IC50 <30 μM) (c-myc) | Cell Proliferation activity (IC50 <30 μM) [3] | IL-6 activity (IC50 <30 μM) (hIL-6 mRNA) | ApoA-1 activity (EC170 <30 μM) (ApoA-I mRNA)

Cc1noc(C)c1-c1cc(N)c(=O)n(Cc2ccccc2Cl)c1 [Example 227, 3-amino-1-(2-chlorobenzyl)-5-(3,5-dimethylisoxazol-4-yl)pyridin-2(1H)-one]
Active: FRET activity (IC50 <30 μM) BRD4(1) [1] | c-myc activity (IC50 <30 μM) (c-myc) | Cell Proliferation activity (IC50 <30 μM) [3] | IL-6 activity (IC50 <30 μM) (hIL-6 mRNA) | ApoA-1 activity (EC170 <30 μM) (ApoA-I mRNA)

Cc1noc(C)c1-c1cc(N)c(=O)n(Cc2ccc(C(F)(F)F)cc2)c1 [Example 228, 3-amino-5-(3,5-dimethylisoxazol-4-yl)-1-(4-(trifluoromethyl)benzyl)pyridin-2(1H)-one]
Active: FRET activity (IC50 <30 μM) BRD4(1) [1] | c-myc activity (IC50 <30 μM) (c-myc) | Cell Proliferation activity (IC50 <30 μM) [3] | IL-6 activity (IC50 <30 μM) (hIL-6 mRNA) | ApoA-1 activity (EC170 <30 μM) (ApoA-I mRNA)

Cc1noc(C)c1-c1cc(C(N)=O)c(=O)n(Cc2ccccc2)c1 [Example 230, 1-Benzyl-5-(3,5-dimethylisoxazol-4-yl)-2-oxo-1,2-dihydropyridine-3-carboxamide]
Active: FRET activity (IC50 <30 μM) BRD4(1) [1] | c-myc activity (IC50 <30 μM) (c-myc) | Cell Proliferation activity (IC50 <30 μM) [3] | IL-6 activity (IC50 <30 μM) (hIL-6 mRNA) | ApoA-1 activity (EC170 <30 μM) (ApoA-I mRNA)

Cc1noc(C)c1-c1cc(N)c(=O)n(Cc2ccc(Cl)cc2)n1 [Example 233, 4-amino-2-(4-chlorobenzyl)-6-(3,5-dimethylisoxazol-4-yl)pyridazin-3(2H)-one]
Active: FRET activity (IC50 <30 μM) BRD4(1) [1] | c-myc activity (IC50 <30 μM) (c-myc) | Cell Proliferation activity (IC50 <30 μM) [3] | IL-6 activity (IC50 <30 μM) (hIL-6 mRNA) | ApoA-1 activity (EC170 <30 μM) (ApoA-I mRNA)
